According to PubChem BioAssay AID330 (DTP/NCI, 2004):
“And” between values parts separate entries of the source, which are not always exact repeats. Identical values can stand only once. Toxic doses and inconclusive results are not listed. Peptide text beside a SMILES is read from it. * marks the point of attachment. Cbz = O=C(OCc1ccccc1)*; OtBu = CC(C)(C)O*

System: P388 leukemia ip, CD2F1 mice, survival T/C
Experiment: NCI In Vivo Anticancer Drug Screen. Data for tumor model P388 Leukemia (intraperitoneal) in CD2F1 (CDF1) mice
Settings: endpoint: median survival time, higher = longer survival
Procedure, shortened: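 Mice carrying the transplanted tumor received test compound or vehicle. Survival was recorded in each group, and the value is the treated-group measurement divided by that of the vehicle-treated control group.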

Structure (SMILES): O=C(CSc1ncnc2nc[nH]c12)c1ccc([N+](=O)[O-])cc1
- T/C (dose: 50.0 mg/kg/injection, schedule: Q01DX009 (ip), vehicle: saline): 92 % of control
- T/C (dose: 100.0 mg/kg/injection, schedule: Q01DX009 (ip), vehicle: saline): 102 % of control
- T/C (dose: 200.0 mg/kg/injection, schedule: Q01DX009 (ip), vehicle: saline): 112 % of control

Structure (SMILES): CC(C)N1CC(=O)N2CSCC2C1=O (stereo not given)
- T/C (dose: 60.0 mg/kg/injection, schedule: Q01DX005 (ip), vehicle: saline): 105 % of control
- T/C (dose: 120.0 mg/kg/injection, schedule: Q01DX005 (ip), vehicle: saline): 105 % of control
- T/C (dose: 240.0 mg/kg/injection, schedule: Q01DX005 (ip), vehicle: saline): 105 % of control

Structure (SMILES): COc1ccc(/C=N/c2oc(-c3ccccc3)c(-c3ccccc3)c2-c2ccc(OC)cc2)cc1
- T/C (dose: 12.5 mg/kg/injection, schedule: Q01DX005 (ip), vehicle: saline with Tween-80): 92 % of control
- T/C (dose: 25.0 mg/kg/injection, schedule: Q01DX005 (ip), vehicle: saline with Tween-80): 87 % of control

Structure (SMILES): COc1cccc(N2CC3CC4C=CC3(C2)O4)c1 (stereo not given)
- T/C (dose: 60.0 mg/kg/injection, schedule: Q01DX005 (ip), vehicle: Klucel (hydroxypropylcellulose) (HPC)): 98 % of control
- T/C (dose: 120.0 mg/kg/injection, schedule: Q01DX005 (ip), vehicle: Klucel (hydroxypropylcellulose) (HPC)): 100 % of control
- T/C (dose: 240.0 mg/kg/injection, schedule: Q01DX005 (ip), vehicle: Klucel (hydroxypropylcellulose) (HPC)): 97 % of control

Structure (SMILES): Clc1n[nH]c(Cl)n1
- T/C (dose: 100.0 mg/kg/injection, schedule: Q01DX009 (ip), vehicle: saline with Tween-80): 95 % of control

Structure (SMILES): CC(C)CC(NC(=O)C(Cc1ccccc1)NC(=O)C1CCCN1C(=O)OCc1ccccc1)C(=O)OC(C)(C)C (stereo not drawn) (Cbz-Pro-Phe-Leu-OtBu; configuration not given here)
- T/C (dose: 50.0 mg/kg/injection, schedule: Q01DX005 (ip), vehicle: saline with Tween-80): 100 % of control
- T/C (dose: 100.0 mg/kg/injection, schedule: Q01DX005 (ip), vehicle: saline with Tween-80): 100 % of control
- T/C (dose: 200.0 mg/kg/injection, schedule: Q01DX005 (ip), vehicle: saline with Tween-80): 91 % of control

Structure (SMILES): C[C@]12CC[C@H](OC(=O)Cc3ccc(N(CCCl)CCCl)cc3)CC1=CC[C@@H]1[C@@H]2CC[C@]2(C)C(=O)CC[C@@H]12
- T/C (dose: 16.0 mg/kg/injection, schedule: Q03HX024 (ip), vehicle: saline): 95 % of control
- T/C (dose: 32.0 mg/kg/injection, schedule: Q03HX008 (ip), vehicle: saline): 90 % of control
- T/C (dose: 32.0 mg/kg/injection, schedule: Q03HX016 (ip), vehicle: saline): 100 % of control
- T/C (dose: 32.0 mg/kg/injection, schedule: Q03HX024 (ip), vehicle: saline): 90 % of control
- T/C (dose: 64.0 mg/kg/injection, schedule: Q01DX009 (ip), vehicle: saline): 100 % of control
- T/C (dose: 64.0 mg/kg/injection, schedule: Q01DX009 (sc), vehicle: saline): 104 % of control
- T/C (dose: 64.0 mg/kg/injection, schedule: Q03HX008 (ip), vehicle: saline): 109 % of control
- T/C (dose: 64.0 mg/kg/injection, schedule: Q03HX016 (ip), vehicle: saline): 109 % of control
- T/C (dose: 64.0 mg/kg/injection, schedule: Q03HX024 (ip), vehicle: saline): 109 % of control
- T/C (dose: 128.0 mg/kg/injection, schedule: Q01DX009 (ip), vehicle: saline): 95 % of control
- T/C (dose: 128.0 mg/kg/injection, schedule: Q01DX009 (sc), vehicle: saline): 109 % of control
- T/C (dose: 128.0 mg/kg/injection, schedule: Q03HX008 (ip), vehicle: saline): 168 % of control
- T/C (dose: 128.0 mg/kg/injection, schedule: Q03HX016 (ip), vehicle: saline): 154 % of control
- T/C (dose: 128.0 mg/kg/injection, schedule: Q03HX024 (ip), vehicle: saline): 100 % of control
- T/C (dose: 128.0 mg/kg/injection, schedule: Q04DX003 (ip), vehicle: saline): 100 % of control
- T/C (dose: 200.0 mg/kg/injection, schedule: Q04DX003 (ip), vehicle: saline with Tween-80): 150 % of control
- T/C (dose: 256.0 mg/kg/injection, schedule: Q01DX001 (ip), vehicle: saline): 100 % of control
- T/C (dose: 256.0 mg/kg/injection, schedule: Q01DX001 (sc), vehicle: saline): 100 % of control
- T/C (dose: 256.0 mg/kg/injection, schedule: Q01DX009 (oral), vehicle: saline): 109 % of control
- T/C (dose: 256.0 mg/kg/injection, schedule: Q01DX009 (sc), vehicle: saline): 118 % of control
- T/C (dose: 256.0 mg/kg/injection, schedule: Q03HX008 (ip), vehicle: saline): 122 % of control
- T/C (dose: 256.0 mg/kg/injection, schedule: Q04DX003 (ip), vehicle: saline): 100 % of control
- T/C (dose: 256.0 mg/kg/injection, schedule: Q08DX002 (ip), vehicle: saline): 100 % of control
- T/C (dose: 264.0 mg/kg/injection, schedule: Q04DX003 (ip), vehicle: saline with Tween-80): 179 % of control
- T/C (dose: 400.0 mg/kg/injection, schedule: Q04DX003 (ip), vehicle: saline with Tween-80): 183 % of control and 200 % of control
- T/C (dose: 512.0 mg/kg/injection, schedule: Q01DX001 (ip), vehicle: saline): 104 % of control
- T/C (dose: 512.0 mg/kg/injection, schedule: Q01DX001 (sc), vehicle: saline): 104 % of control
- T/C (dose: 512.0 mg/kg/injection, schedule: Q01DX009 (ip), vehicle: saline): 150 % of control
- T/C (dose: 512.0 mg/kg/injection, schedule: Q01DX009 (oral), vehicle: saline): 113 % of control
- T/C (dose: 512.0 mg/kg/injection, schedule: Q04DX003 (ip), vehicle: saline): 122 % of control
- T/C (dose: 512.0 mg/kg/injection, schedule: Q08DX002 (ip), vehicle: saline): 118 % of control
- T/C (dose: 600.0 mg/kg/injection, schedule: Q04DX003 (ip), vehicle: saline with Tween-80): 112 % of control
- T/C (dose: 1024.0 mg/kg/injection, schedule: Q01DX001 (ip), vehicle: saline): 118 % of control
- T/C (dose: 1024.0 mg/kg/injection, schedule: Q01DX001 (sc), vehicle: saline): 118 % of control
- T/C (dose: 1024.0 mg/kg/injection, schedule: Q01DX009 (oral), vehicle: saline): 109 % of control
- T/C (dose: 1024.0 mg/kg/injection, schedule: Q04DX003 (ip), vehicle: saline): 163 % of control
- T/C (dose: 1024.0 mg/kg/injection, schedule: Q08DX002 (ip), vehicle: saline): 159 % of control
- T/C (dose: 2048.0 mg/kg/injection, schedule: Q01DX001 (ip), vehicle: saline): 109 % of control
- T/C (dose: 2048.0 mg/kg/injection, schedule: Q01DX009 (oral), vehicle: saline): 118 % of control
- T/C (dose: 2048.0 mg/kg/injection, schedule: Q08DX002 (ip), vehicle: saline): 90 % of control
